ChEMBL document CHEMBL1201862, “PubChem BioAssay data set” (2004)
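Tested at 5 concentrations; 48 h exposure; 96-well plates; endpoints linearly interpolated, else capped at highest concentration. GI50: concentration for 50% inhibition of growth.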 The source made the active and inactive calls. No stated cut-off is given here; in the data, active = GI50 up to about 1.1 µM and inactive = higher.

Assays:
Assay in all cases: DTP human tumour cell line panel, 48 h
[1] = system: A549
[2] = system: ACHN
[3] = system: CCRF-CEM
[4] = system: COLO 205
[5] = system: DU-145
[6] = system: HCC 2998
[7] = system: HCT-116
[8] = system: KM12
[9] = system: LOX IMVI
[10] = system: M14
[11] = system: MDA-MB-435
[12] = system: NCI-H226
[13] = system: NCI-H460
[14] = system: RPMI-8226
[15] = system: SF-268
[16] = system: SK-MEL-28
[17] = system: SK-OV-3
[18] = system: SR
[19] = system: SW-620

Row | Compound | GI50 [1] | GI50 [2] | GI50 [3] | GI50 [4] | GI50 [5] | GI50 [6] | GI50 [7] | GI50 [8] | GI50 [9] | GI50 [10] | GI50 [11] | GI50 [12] | GI50 [13] | GI50 [14] | GI50 [15] | GI50 [16] | GI50 [17] | GI50 [18] | GI50 [19]
1 | Cn1c(=O)c2[nH]c(/N=N\n3ccc4ccccc43)nc2n(C)c1=O | > 100 µM (inactive) | > 100 µM (inactive) | > 100 µM (inactive) | > 100 µM (inactive) | > 100 µM (inactive) | > 100 µM (inactive) | > 100 µM (inactive) | > 100 µM (inactive) | > 100 µM (inactive) | > 100 µM (inactive) | > 100 µM (inactive) | > 100 µM (inactive) | > 100 µM (inactive) | > 100 µM (inactive) | > 100 µM (inactive) | > 100 µM (inactive) | > 100 µM (inactive) | > 100 µM (inactive) | > 100 µM (inactive)
2 | COc1ccc2c(c1)CCCN1CCc3cc(OC)c(OC)cc3C21 (configuration not stated) | > 100 µM (inactive) | 84.1 µM (inactive) | > 100 µM (inactive) | > 100 µM (inactive) | > 100 µM (inactive) | 45.7 µM (inactive) | 76 µM (inactive) | > 100 µM (inactive) | 77.1 µM (inactive) | > 100 µM (inactive) | > 100 µM (inactive) | > 100 µM (inactive) | – | 71.4 µM (inactive) | > 100 µM (inactive) | > 100 µM (inactive) | > 100 µM (inactive) | > 100 µM (inactive) | > 100 µM (inactive)
3 | NC(=O)c1cc2cc(Cl)cc(Cl)c2o/c1=N\c1ccc(F)cc1 | 19.3 µM (inactive) | 19.5 µM (inactive) | 56.8 µM (inactive) | 17.5 µM (inactive) | 19 µM (inactive) | 21.1 µM (inactive) | 17.3 µM (inactive) | 26.5 µM (inactive) | 27.6 µM (inactive) | 20.3 µM (inactive) | 20 µM (inactive) | 18.6 µM (inactive) | 17.1 µM (inactive) | 26.5 µM (inactive) | 32.4 µM (inactive) | 21.9 µM (inactive) | 22.5 µM (inactive) | 4.08 µM (inactive) | 30.3 µM (inactive)
4 | C[C@@H]1CCC2[C@@H](C)[C@@H](OCCO[C@H]3OC4O[C@@]5(C)CCC6[C@H](C)CCC([C@H]3C)[C@@]46OO5)OC3O[C@@]4(C)CCC1[C@]32OO4 (some centres not stated) | 0.0634 µM (active) | 0.154 µM (active) | 0.0682 µM (active) | 0.0514 µM (active) | 0.171 µM (active) | 6.92 µM (inactive) | 0.0251 µM (active) | 0.056 µM (active) | 0.0565 µM (active) | 0.379 µM (active) | 0.239 µM (active) | 0.289 µM (active) | 0.151 µM (active) | < 0.01 µM (active) | 0.233 µM (active) | 2.86 µM (inactive) | 0.577 µM (active) | 0.0345 µM (active) | 0.0537 µM (active)
5 | O=C1OCC2OC(=O)c3cc(O)c(O)c(O)c3-c3c(O)c(O)c(O)c4c3C(=O)OC(C2OC(=O)c2cc(O)c(O)c(O)c2-c2c1cc(O)c(O)c2O)C1OC(=O)C2C4=C(O)C(=O)C23Oc2cc(O)c4c(c2[C@H]13)O[C@H](c1ccc(O)c(O)c1)[C@@H](O)C4 (some centres not stated) | 19.1 µM (inactive) | 23 µM (inactive) | 19.4 µM (inactive) | 19.2 µM (inactive) | 30.9 µM (inactive) | 25.2 µM (inactive) | 17.3 µM (inactive) | 24.8 µM (inactive) | 14.8 µM (inactive) | 12.6 µM (inactive) | 18.5 µM (inactive) | 14.2 µM (inactive) | 20.5 µM (inactive) | 24.5 µM (inactive) | 19 µM (inactive) | 66.7 µM (inactive) | 44.1 µM (inactive) | 27.5 µM (inactive) | 20.6 µM (inactive)
6 | O=[N+]([O-])c1oc2ccc3ccccc3c2c1CCO | 1.9 µM (inactive) | 1.58 µM (inactive) | 3.86 µM (inactive) | 0.346 µM (active) | 3.51 µM (inactive) | 0.435 µM (active) | 2.29 µM (inactive) | 9.33 µM (inactive) | 2.14 µM (inactive) | 1.94 µM (inactive) | 1.53 µM (inactive) | 8.75 µM (inactive) | 0.0479 µM (active) | 3.96 µM (inactive) | 5.47 µM (inactive) | 1.38 µM (inactive) | 1.05 µM (active) | 0.114 µM (active) | 4.08 µM (inactive)
7 | C=C1[C@H](OCC(C)C)[C@@H](O)[C@@H](OC(=O)c2cccnc2)C(C)(C)/C=C/[C@H](C)[C@H](OC(C)=O)[C@@]2(O)C[C@@](C)(OC(C)=O)[C@H](OC(=O)c3ccccc3)[C@@H]2[C@H]1OC(C)=O | 0.0459 µM (active) | 0.161 µM (active) | 0.133 µM (active) | 0.0713 µM (active) | 1.91 µM (inactive) | 0.19 µM (active) | 1.59 µM (inactive) | 1.34 µM (inactive) | 1.17 µM (inactive) | 0.977 µM (active) | 0.167 µM (active) | 1.39 µM (inactive) | 0.0126 µM (active) | 0.741 µM (active) | > 1.49 µM (inactive) | 1.14 µM (inactive) | > 3.02 µM (inactive) | 1.16 µM (inactive) | 0.502 µM (active)
